The target of one assay is T1, PDK1 50-360 (Homo sapiens, UniProt O15530).
T1 construct: the catalytic domain of PDK1 (50-359) produced in SF9 insect cells; His-tag (pFastbac-HT, TEV site) (N, cleaved yes); made in house; host or cells: Sf9 insect cells (baculovirus, pFastbac-HT)
T1 sequence (O15530 50-359): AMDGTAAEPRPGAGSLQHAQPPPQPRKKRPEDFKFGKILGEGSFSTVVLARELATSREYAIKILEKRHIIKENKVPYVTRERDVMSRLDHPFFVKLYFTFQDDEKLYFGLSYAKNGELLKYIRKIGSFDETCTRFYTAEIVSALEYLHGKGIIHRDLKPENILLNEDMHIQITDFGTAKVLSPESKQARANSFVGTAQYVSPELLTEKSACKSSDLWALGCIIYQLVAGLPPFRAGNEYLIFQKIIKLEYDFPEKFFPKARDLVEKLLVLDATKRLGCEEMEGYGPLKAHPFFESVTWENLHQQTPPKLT
As to the kind of experiment: Isothermal Titration Calorimetry. Format: binding. As to conditions: ITC. The protocol: FIG. 8—Characterization of compound 1 interaction with PDK1 50-360 by Isothermal Titration Calorimetry (ITC). Upper panel, raw data of the titration of compound 1 into PDK1 50-360. Lower panel, integrated heats of injection, corrected for the heat of dilution, with the solid line corresponding to the best fit of the data using Origin™ software. The best fit corresponded to a model with one type of sites. […] The calorimetric titration was performed using the VP-ITC instrument from MicroCal Inc. (Northampton, Mass.) as previously described (Schaeffer et al., 2002) with the following modifications. PDK1 and compound 1 were prepared in 50 mM Tris-HCl (pH 7.5), 175 mM NaCl, 1 mM DTT and 3% DMSO. Titration was performed by 30 successive injections (10 μl) of compound 1 (0.9 mM) into a 1.41 ml reaction cell containing PDK1 50-360 ([…]). Raw calorimetric data were corrected for the heat of dilution, and analyzed using the program Origin™ provided by the manufacturer. Binding stoichiometry, enthalpy and equilibrium dissociation constants were determined by fitting corrected data to a model with a single binding site.

The target of assay [1] is T2, PDK1[Val127Leu] activation of SGK1 [Ser422Asp] (Homo sapiens, UniProt O15530, V127L).
T2 construct: GST (N); made in house; host or cells: HEK293
T2 sequence (O15530 whole entry V127L): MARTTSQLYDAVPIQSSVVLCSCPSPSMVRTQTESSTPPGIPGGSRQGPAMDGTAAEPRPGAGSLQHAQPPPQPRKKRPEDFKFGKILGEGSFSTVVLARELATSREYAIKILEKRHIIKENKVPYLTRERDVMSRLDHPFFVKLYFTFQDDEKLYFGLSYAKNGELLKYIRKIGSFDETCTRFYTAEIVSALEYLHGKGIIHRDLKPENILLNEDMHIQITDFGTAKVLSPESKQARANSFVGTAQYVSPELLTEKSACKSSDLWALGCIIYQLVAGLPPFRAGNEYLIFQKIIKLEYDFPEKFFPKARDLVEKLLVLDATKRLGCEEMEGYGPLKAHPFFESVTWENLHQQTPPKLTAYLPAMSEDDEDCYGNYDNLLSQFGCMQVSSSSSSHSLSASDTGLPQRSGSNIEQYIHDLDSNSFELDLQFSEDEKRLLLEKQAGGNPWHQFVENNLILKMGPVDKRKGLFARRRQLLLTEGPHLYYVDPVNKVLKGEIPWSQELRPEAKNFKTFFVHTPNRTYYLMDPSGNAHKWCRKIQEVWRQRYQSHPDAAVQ
Briefly: SGK activation by PDK1[Val127Leu] in vitro. Format: biochemical. As to conditions: compound 60 μM. How it is done:
FIG. 4—Small compounds designed to bind the HM/PIF-pocket of PDK1 can block the PDK1-dependent phosphorylation and activation of substrates that require docking to the HM/PIF-pocket of PDK1. (A) Effect of compound 1 (100 and 200 μM) on PDK1 phosphorylation of its substrate S6K1. The phosphorylation reaction was performed in vitro with [γ^32P]ATP and then separated on SDS-PAGE followed by exposure to phosphorimager. The radioactive band corresponding to phosphorylated GST-56K1-T2[Thr412Glu] (S6K[412E]) is indicated. (B) PDK1 or PDK1[Val127Leu] (PDK1[V127L]) were pre-incubated with GST-[…]N-SGK1 [Ser422Asp] […] (C) The activity of S6K was measured in vitro after glutathione sepharose purification; aliquots of purified proteins were separated on SDS-PAGE and the level of activation loop phosphorylation was visualized by immunoblotting using phospho-specific antibodies that recognize the phosphorylated activation loop, followed by stripping of the membranes and re-probing with anti-GST to verify the presence of equal amounts of protein. (D) Cells overexpressing GST-56K1-T2[Thr412Glu] were treated as in (C) but S6K activity was measured in vitro after immunoprecipitation of the GST-fusion protein with anti-GST antibodies; the level of S6K expression was analysed by western-blotting of crude extracts. […]

For `O=C(O)CSC(CC(=O)c1ccc(Cl)cc1)c1ccccc1` (centres unmarked) [Compound 1], on PDK1 50-360, the “N (binding stoichiometry)” value is 1.0 ± 0.1, the TΔS turned out to be 4.3 ± 0.2 kcal/mol and the ΔH is reported as −2.1+0.1 kcal·mol^−1. Further, on PDK1 50-360 (one type of sites, pH 7.5, 3% DMSO), the Kd was found to be 18 µM. In assay [1], the “SGK activation by PDK1[Val127Leu] (in words)” value is on record as “not inhibited”.

(Values after patent US20110152166A1, “METHOD OF MODULATION OF PROTEIN PHOSPHORYLATION-DEPENDENT CONFORMATIONAL TRANSITIONS WITH LOW MOLECULAR WEIGHT COMPOUNDS” (priority 2006, published 2011).)
